# In the supplement of paper PMC10307832:
# How the values were obtained:
# Assay in all cases: relative viability (nuclei count vs DMSO), 5 days (fraction); higher = more cells survive
# 17-AAG = compound: C=CCNC1=C2C[C@@H](C)C[C@H](OC)[C@H](O)[C@@H](C)/C=C(\C)[C@H](OC(N)=O)[C@@H](OC)/C=C\C=C(/C)C(=O)NC(=CC1=O)C2=O [17-AAG]
# How it was run: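 For viability, nuclei in each treated well were divided by nuclei in vehicle wells and the median across plates was taken. Lung cancer cell lines in 1536-well plates were pinned with five library-drug doses (not always all listed) spaced by √10, cultured 5 days without medium change, and imaged at 4× after Hoechst staining, with plates passing only at control CV below 25% and at least one doubling.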
# 17-AAG + Luminespib = compound: C=CCNC1=C2C[C@@H](C)C[C@H](OC)[C@H](O)[C@@H](C)/C=C(\C)[C@H](OC(N)=O)[C@@H](OC)/C=C\C=C(/C)C(=O)NC(=CC1=O)C2=O [17-AAG] + CCNC(=O)c1noc(-c2cc(C(C)C)c(O)cc2O)c1-c1ccc(CN2CCOCC2)cc1 [Luminespib] (partner 0.01 µM)
# How it was run: (§1)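 For relative viability, nuclei counts in treated wells were divided by those in vehicle wells. Lung cancer cell lines had been pin-tool dosed in 1536-well plates the day after seeding and cultured for 5 days, then fixed and stained in one step (final 0.05% Triton X-100, 1% formaldehyde, 1 ug/ml Hoechst) and imaged at 4×. Doses were one drug alone or a fixed anchor-drug dose plus five library-drug doses (not always all listed) in √10 steps, and values are duplicate-plate medians.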
# 17-AAG + Foretinib = compound: C=CCNC1=C2C[C@@H](C)C[C@H](OC)[C@H](O)[C@@H](C)/C=C(\C)[C@H](OC(N)=O)[C@@H](OC)/C=C\C=C(/C)C(=O)NC(=CC1=O)C2=O [17-AAG] + COc1cc2c(Oc3ccc(NC(=O)C4(C(=O)Nc5ccc(F)cc5)CC4)cc3F)ccnc2cc1OCCCN1CCOCC1 [Foretinib] (partner 0.25 µM)
# How it was run: as §1
# 17-AAG + OSI-027 = compound: C=CCNC1=C2C[C@@H](C)C[C@H](OC)[C@H](O)[C@@H](C)/C=C(\C)[C@H](OC(N)=O)[C@@H](OC)/C=C\C=C(/C)C(=O)NC(=CC1=O)C2=O [17-AAG] + COc1cccc2cc(-c3nc([C@H]4CC[C@H](C(=O)O)CC4)n4ncnc(N)c34)[nH]c12 [OSI-027] (partner 0.5 µM)
# How it was run: as §1
# 17-AAG + Tozasertib = compound: C=CCNC1=C2C[C@@H](C)C[C@H](OC)[C@H](O)[C@@H](C)/C=C(\C)[C@H](OC(N)=O)[C@@H](OC)/C=C\C=C(/C)C(=O)NC(=CC1=O)C2=O [17-AAG] + Cc1cc(Nc2cc(N3CCN(C)CC3)nc(Sc3ccc(NC(=O)C4CC4)cc3)n2)n[nH]1 [Tozasertib] (partner 0.1 µM)
# How it was run: as §1
# 17-AAG + Dasatinib = compound: C=CCNC1=C2C[C@@H](C)C[C@H](OC)[C@H](O)[C@@H](C)/C=C(\C)[C@H](OC(N)=O)[C@@H](OC)/C=C\C=C(/C)C(=O)NC(=CC1=O)C2=O [17-AAG] + Cc1nc(Nc2ncc(C(=O)Nc3c(C)cccc3Cl)s2)cc(N2CCN(CCO)CC2)n1 [Dasatinib] (partner 0.075 µM)
# How it was run: as §1
# 17-AAG + Phenformin = compound: C=CCNC1=C2C[C@@H](C)C[C@H](OC)[C@H](O)[C@@H](C)/C=C(\C)[C@H](OC(N)=O)[C@@H](OC)/C=C\C=C(/C)C(=O)NC(=CC1=O)C2=O [17-AAG] + N=C(N)NC(=N)NCCc1ccccc1 [Phenformin] (partner 250 µM)
# How it was run: as §1
cell line,measurement,setting,value
NCI-H1623,relative viability,17-AAG; 0.00128 µM,0.978
same,relative viability,17-AAG; 0.004048 µM,0.919
same,relative viability,17-AAG; 0.0128 µM,0.755
same,relative viability,17-AAG; 0.04048 µM,0.31
same,relative viability,17-AAG; 0.128 µM,0.383
same,relative viability,17-AAG + Luminespib; first compound 0.00128 µM,0.555
same,relative viability,17-AAG + Luminespib; first compound 0.004048 µM,0.369
same,relative viability,17-AAG + Luminespib; first compound 0.0128 µM,0.283
same,relative viability,17-AAG + Luminespib; first compound 0.04048 µM,0.273
same,relative viability,17-AAG + Luminespib; first compound 0.128 µM,0.267
same,relative viability,17-AAG + Foretinib; first compound 0.00128 µM,0.87
same,relative viability,17-AAG + Foretinib; first compound 0.004048 µM,0.695
same,relative viability,17-AAG + Foretinib; first compound 0.0128 µM,0.491
same,relative viability,17-AAG + Foretinib; first compound 0.04048 µM,0.304
same,relative viability,17-AAG + Foretinib; first compound 0.128 µM,0.336
same,relative viability,17-AAG + OSI-027; first compound 0.00128 µM,0.475
same,relative viability,17-AAG + OSI-027; first compound 0.004048 µM,0.463
same,relative viability,17-AAG + OSI-027; first compound 0.0128 µM,0.33
same,relative viability,17-AAG + OSI-027; first compound 0.04048 µM,0.254
same,relative viability,17-AAG + OSI-027; first compound 0.128 µM,0.33
same,relative viability,17-AAG + Tozasertib; first compound 0.00128 µM,0.412
same,relative viability,17-AAG + Tozasertib; first compound 0.004048 µM,0.401
same,relative viability,17-AAG + Tozasertib; first compound 0.0128 µM,0.497
same,relative viability,17-AAG + Tozasertib; first compound 0.04048 µM,0.261
same,relative viability,17-AAG + Tozasertib; first compound 0.128 µM,0.31
same,relative viability,17-AAG + Dasatinib; first compound 0.00128 µM,0.625
same,relative viability,17-AAG + Dasatinib; first compound 0.004048 µM,0.351
same,relative viability,17-AAG + Dasatinib; first compound 0.0128 µM,0.284
same,relative viability,17-AAG + Dasatinib; first compound 0.04048 µM,0.265
same,relative viability,17-AAG + Dasatinib; first compound 0.128 µM,0.284
same,relative viability,17-AAG + Phenformin; first compound 0.00128 µM,0.614
same,relative viability,17-AAG + Phenformin; first compound 0.004048 µM,0.369
same,relative viability,17-AAG + Phenformin; first compound 0.0128 µM,0.323
same,relative viability,17-AAG + Phenformin; first compound 0.04048 µM,0.268
same,relative viability,17-AAG + Phenformin; first compound 0.128 µM,0.285
